Patent publication US20100172983A1 (priority 2001, published 2010)

Experiments:
[1] = system: intragastric pH; test: Emax model: esomeprazole AUC0-24 vs percent time intragastric pH>4.0 on Day 9 (Example 11); format: in vivo, human
[2] = in vivo; cited from earlier work
[3] = system: gastric pH; settings: during the 8-10 hours following naproxen sodium dosing
[4] = system: gastroduodenal mucosa; settings: twice daily for five days

## COc1ccc2nc([S@@+]([O-])Cc3ncc(C)c(OC)c3C)[nH]c2c1 [esomeprazole]
[1]; Day 9
  Emax, maximal effect: % of time with intragastric pH>4.0 over the daily interval at steady state: 90.4%
[1]; Day 9, plasma esomeprazole
  AUC0-24 value required to achieve half (or 50%) of the maximal response (EC50): 713 ng·h/mL

## CCc1cccc2c3c([nH]c12)C(CC)(CC(=O)O)OCC3 (stereo not drawn) [etodolac]
[2]
  half-life: about 7 hours

## CC(C(=O)O)c1ccc(-c2ccccc2)c(F)c1 (stereo not drawn) [flurbiprofen]
[2]
  half-life: about 6 hours

## O=C(c1ccccc1)c1ccc2n1CCC2C(=O)O (stereo not drawn) [ketorolac]
[2]
  half-life: 8 to 9 h

## Cc1cccc(Nc2ccccc2C(=O)O)c1C [mefenamic acid]
[2]
  half-life: up to 4 hours

## COc1ccc2cc([C@H](C)C(=O)O)ccc2c1 [naproxen sodium]
[3]
  time the pH was greater than 4: 4%
[4]
  patients presenting with gastroduodenal ulcers at the end of the study: 33%
[4]; Day 5 endoscopy
  subjects with Lanza grade 3 or 4 damage: 100%
